Patent US10176292B2, “STING crystals and modulators” (MEMORIAL SLOAN-KETTERING CANCER CENTER, priority 2013, dated 2019)

Tests used:
hSTING^group134 = assay: IFN-β luciferase reporter, hSTING^group134; format: cell-based, human; settings: 0.18 mM DMXAA; compared with hSTING^group1234
Experimental: (§1) Luciferase assays for DMXAA experiments were performed as described above. Briefly, 3×10^4 293T cells were reverse-transfected with STING constructs (5 ng per 96-well) and reporter constructs (50 ng pIFNβ-Gluc, 10 ng pLenti-EF1-Fluc for normalization, 35 ng pMAX-empty as stuffer, delivered with TransIT-LT1, MirusBio, Madison Wis.). […] 12 hours after stimulation with STING-ligands, cells were resuspended in passive lysis buffer and luciferase activity was determined using the respective substrates Coelenterazine and D-Luciferin (PJK, Kleinblittersdorf, Germany). Gaussia Luciferase values were then normalized to constitutive Firefly Luciferase values (resulting in Relative Light Units, RLU).
Full-length hSTING (wt and substitutions) and mSTING (wt) constructs were used for this cellular assay, and were expressed at moderate levels allowing ligand-dependent activation of IFN-β promoter.

[1] = test system: hSTING^group1 (aa 140-379); assay: ITC binding, hSTING^group1; settings: isolated group1 substitutions
hSTING^H232/A162 = hSTING^H232/A162 (Homo sapiens, UniProt Q86WV6, S162A); assay: ITC binding, hSTING^H232 mutant S162A; settings: DMXAA; Protein: 0.08 mM; Ligands: 0.8 mM; 180 mM NaCl, pH 7.5; 25° C.
hSTING S162V = target: T1, hSTING S162V (Homo sapiens, UniProt Q86WV6, S162V); assay: IFN-β luciferase reporter, hSTING S162V; format: cell-based; settings: 75 μg/ml DMXAA (FIG. 14A)
T1 construct: Full-length hSTING (wt and substitutions) and mSTING (wt) constructs were used for this cellular assay; expressed in transfected cells; host or cells: HEK293T
Experimental: Luciferase expression was determined after 12 h. […] Cells were lysed in Passive Lysis Buffer.
as §1

hSTING Q266L = target: T2, hSTING Q266L (Homo sapiens, UniProt Q86WV6, H232R/Q266L); assay: IFN-β luciferase reporter, hSTING Q266L; format: cell-based; settings: 0.18 mM DMXAA, 12 hours
T2 construct: Full-length hSTING (wt and substitutions) and mSTING (wt) constructs were used for this cellular assay; expressed in transfected cells; host or cells: 293T
Experimental: as §1

[2] = test system: hSTING S162A (hSTING^H232 and hSTING^R232 background); format: cell-based, human; settings: DMXAA in medium, 12 h; hSTING^H232 and hSTING^R232 background

Sequence of hSTING^H232/A162 (Q86WV6 140-379 S162A): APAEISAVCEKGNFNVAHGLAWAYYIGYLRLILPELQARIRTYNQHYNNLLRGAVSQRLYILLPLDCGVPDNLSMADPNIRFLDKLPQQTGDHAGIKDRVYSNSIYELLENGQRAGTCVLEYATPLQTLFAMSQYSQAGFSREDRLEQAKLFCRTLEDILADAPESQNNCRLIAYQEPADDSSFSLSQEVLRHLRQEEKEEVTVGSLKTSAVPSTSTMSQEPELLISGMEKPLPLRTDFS
T1 sequence (Q86WV6 whole entry S162V): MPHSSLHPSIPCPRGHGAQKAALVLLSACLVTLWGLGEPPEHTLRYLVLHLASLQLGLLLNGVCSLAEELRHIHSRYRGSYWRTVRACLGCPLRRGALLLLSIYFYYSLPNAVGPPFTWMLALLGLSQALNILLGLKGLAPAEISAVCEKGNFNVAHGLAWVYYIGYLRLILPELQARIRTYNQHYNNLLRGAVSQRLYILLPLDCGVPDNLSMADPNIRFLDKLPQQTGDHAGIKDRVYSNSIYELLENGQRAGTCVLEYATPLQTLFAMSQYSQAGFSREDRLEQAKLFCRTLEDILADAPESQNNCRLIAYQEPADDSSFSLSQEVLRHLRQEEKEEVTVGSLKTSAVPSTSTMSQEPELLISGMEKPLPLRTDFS
T2 sequence (Q86WV6 whole entry H232R/Q266L): as the sequence (Q86WV6 whole entry S162V) above, with V162S, H232R, Q266L counted along it

IFN-β luciferase reporter response to DMXAA (hSTING^group134): strongly diminished DMXAA activation
binding to DMXAA (ITC) [1]: no detectable binding
TΔS (hSTING^H232/A162): +7.99 Kcal/mol
ΔH (hSTING^H232/A162): +0.44 Kcal/mol
IFN induction by DMXAA (hSTING S162V): not observed
DMXAA-mediated IFN-β induction (hSTING Q266L): less pronounced gain
IFN luciferase reporter response to DMXAA [2]: enabled recognition of DMXAA
Structure (SMILES): Cc1ccc2c(=O)c3cccc(CC(=O)O)c3oc2c1C [DMXAA, 5,6-dimethylxanthenone-4-acetic acid]
